Measured values taken from PMC4300089, “Structure-Guided Design of Selective Epac1 and Epac2 Agonists” (PLoS Biology, 2015).

How the values were obtained:
Epac2^Δ280 = target: T1, Epac2^Δ280 (Mus musculus, UniProt Q9EQZ6); assay: Epac activation assay (Rap1B•mGDP fluorescence nucleotide exchange), Epac2^Δ280; type: biochemical; conditions: for AC50 / Rel. kmax: Epac2^Δ280; for Rel. kmax: maximal activity relative to cAMP
T1 construct: made in house
T1 sequence (Q9EQZ6 281-993 isoform Q9EQZ6-3): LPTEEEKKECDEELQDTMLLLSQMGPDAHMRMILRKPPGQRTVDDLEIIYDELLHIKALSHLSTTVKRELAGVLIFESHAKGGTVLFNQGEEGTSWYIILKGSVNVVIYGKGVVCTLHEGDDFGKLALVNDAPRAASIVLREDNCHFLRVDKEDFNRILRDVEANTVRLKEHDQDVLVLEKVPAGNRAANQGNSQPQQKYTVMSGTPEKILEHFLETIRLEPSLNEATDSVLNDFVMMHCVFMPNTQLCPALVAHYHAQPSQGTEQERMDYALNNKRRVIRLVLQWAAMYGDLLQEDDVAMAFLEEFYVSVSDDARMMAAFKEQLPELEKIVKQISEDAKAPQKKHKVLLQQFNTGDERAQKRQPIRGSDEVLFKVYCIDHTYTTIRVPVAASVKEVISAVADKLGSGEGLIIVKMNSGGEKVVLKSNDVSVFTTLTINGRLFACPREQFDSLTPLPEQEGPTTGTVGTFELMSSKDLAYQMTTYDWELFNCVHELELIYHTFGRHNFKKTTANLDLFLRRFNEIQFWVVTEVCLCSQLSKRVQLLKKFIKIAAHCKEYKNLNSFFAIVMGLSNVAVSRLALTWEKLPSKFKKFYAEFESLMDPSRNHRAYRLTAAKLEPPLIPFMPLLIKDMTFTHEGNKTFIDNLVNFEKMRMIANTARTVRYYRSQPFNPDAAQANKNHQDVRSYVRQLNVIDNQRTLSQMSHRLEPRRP
Protocol: Murine Epac2 was used as all previous structural studies were performed with it.
The activity of Epac was determined by a fluorescence assay. […] The fluorescence intensity of Rap1B•mGDP is approximately twice that of free mGDP, and thus, nucleotide exchange can be observed as a decay in fluorescence upon the addition of excess unlabeled GDP.

PKA-IIα = target: T2, PKA-IIα (Homo sapiens, UniProt P13861); assay: PKA activity assay, PKA-IIα; type: biochemical; conditions: for EC50: read-out: Kact; for A (PKA activity): PKAIIα
T2 construct: made in house
Protocol: The recombinant human PKA catalytic subunit (Cα1) and the four human PKA regulatory subunits (RIα, RIβ, RIIα, RIIβ) were expressed, purified, and characterized as described. […] PKA holoenzymes were formed by mixing the R- and C-subunit at a molar ratio of 1.2:1 and extensive dialysis against 20 mM MOPS (pH 7.0), 150 mM NaCl, 2.5 mM β-mercaptoethanol, supplemented with 1 mM ATP and 10 mM MgCl2 for PKA-I at 4°C overnight. PKA holoenzymes were used at about 20 nM for the activation assay. The apparent activation constants (Kact) were determined by fitting the concentration-dependent activity to a sigmoid dose-response model.

PKA = assay: Cellular PKA activity: P-VASP band shift in U2OS Epac1 and Epac2 cell lines; type: cell-based; conditions: for rel. P-VASP: PKA, average of Epac1 and Epac2 cell lines, relative to induction with forskolin and IBMX, Fig. 6C; for activation of PKA in cells: U2OS cell lines
Protocol: (§1) Rap•GTP levels were determined by precipitating GTP-bound Rap specifically from cell lysates and subsequent western Blotting with an α-Rap antibody (Santa Cruz Biotechnology). To generate stable cell lines, U2OS cells were transfected with pBabe-Flag-Epac1 (Epac1, homo sapiens, amino acids 1–881) or pBabe-Flag-Epac2 (Epac2, mus musculus, amino acids 1–993), selected for Epac expression and maintained under selection with 2 mg/l puromycin. The cells were cultured according to standard protocols. The activity of PKA was determined by western blotting with a monoclonal α-VASP antibody (BD Transduction Laboratories). Blots were developed by enhanced chemiluminescence (ECL) and the use of X-ray films; for quantification films were scanned. The intensities of the Rap•GTP bands and the upper band of VASP (P-VASP) were determined for each condition in ImageJ and normalized to the stimulation with forskolin and IBMX for each blot.

Epac1 = target: T3, Epac1 (Homo sapiens, UniProt O95398); assay: Cellular Epac activity: Rap•GTP levels in U2OS cells stably expressing Epac1; type: cell-based; conditions: for rel. RapGTP: relative to induction with forskolin and IBMX, Fig. 6C
T3 construct: pBabe-Flag-Epac1 (Epac1, homo sapiens, amino acids 1–881); expressed in transfected cells; host or cells: U2OS
T3 sequence (O95398 1-881 isoform O95398-3): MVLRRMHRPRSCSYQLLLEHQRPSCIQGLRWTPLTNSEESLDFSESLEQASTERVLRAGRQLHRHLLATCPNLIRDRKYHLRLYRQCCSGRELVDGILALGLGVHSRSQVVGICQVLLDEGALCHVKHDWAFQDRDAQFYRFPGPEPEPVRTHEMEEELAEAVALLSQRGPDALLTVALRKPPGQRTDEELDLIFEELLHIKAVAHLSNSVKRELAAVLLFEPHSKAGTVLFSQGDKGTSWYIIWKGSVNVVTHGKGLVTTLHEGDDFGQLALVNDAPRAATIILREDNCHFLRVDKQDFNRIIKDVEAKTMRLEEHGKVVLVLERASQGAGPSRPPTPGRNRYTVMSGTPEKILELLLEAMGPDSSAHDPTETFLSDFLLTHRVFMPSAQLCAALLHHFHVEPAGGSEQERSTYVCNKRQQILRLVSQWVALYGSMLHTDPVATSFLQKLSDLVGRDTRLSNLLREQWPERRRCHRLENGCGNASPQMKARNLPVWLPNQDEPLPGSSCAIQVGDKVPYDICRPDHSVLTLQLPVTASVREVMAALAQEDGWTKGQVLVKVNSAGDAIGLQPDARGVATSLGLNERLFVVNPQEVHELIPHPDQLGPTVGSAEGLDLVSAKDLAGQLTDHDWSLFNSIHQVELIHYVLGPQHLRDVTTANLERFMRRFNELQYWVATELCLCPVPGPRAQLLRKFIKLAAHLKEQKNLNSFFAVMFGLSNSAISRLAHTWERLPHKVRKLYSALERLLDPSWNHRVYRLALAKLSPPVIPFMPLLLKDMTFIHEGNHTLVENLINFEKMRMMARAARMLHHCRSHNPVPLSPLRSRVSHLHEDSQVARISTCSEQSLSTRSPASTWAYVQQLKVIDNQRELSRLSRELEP
Protocol: as §1

T2 sequence (P13861 whole entry): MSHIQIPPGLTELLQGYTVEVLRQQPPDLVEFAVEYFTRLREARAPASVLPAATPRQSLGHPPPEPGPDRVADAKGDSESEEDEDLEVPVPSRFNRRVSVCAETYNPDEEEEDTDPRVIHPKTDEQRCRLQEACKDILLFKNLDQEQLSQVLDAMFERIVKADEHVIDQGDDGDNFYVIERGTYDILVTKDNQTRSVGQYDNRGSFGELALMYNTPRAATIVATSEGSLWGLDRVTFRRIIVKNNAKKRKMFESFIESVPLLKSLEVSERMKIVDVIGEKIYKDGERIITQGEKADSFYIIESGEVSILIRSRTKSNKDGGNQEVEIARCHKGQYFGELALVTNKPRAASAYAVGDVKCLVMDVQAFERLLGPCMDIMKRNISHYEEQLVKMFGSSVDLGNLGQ

Row | SMILES | AC50 (Epac2^Δ280) [nM] | Rel. kmax (Epac2^Δ280) | EC50 (PKA-IIα; PKA-IIα) [nM] | A (PKA activity) (PKA-IIα; concentration 1 μM) [U/mg] | A (PKA activity) (PKA-IIα; concentration 1.00E+01 μM) [U/mg] | A (PKA activity) (PKA-IIα; concentration 1.00E-01 μM) [U/mg] | A (PKA activity) (PKA-IIα; concentration 1.00E-02 μM) [U/mg] | A (PKA activity) (PKA-IIα; concentration 1.00E-03 μM) [U/mg] | A (PKA activity) (PKA-IIα; concentration 1.00E-04 μM) [U/mg] | A (PKA activity) (PKA-IIα; concentration 1.00E-05 μM) [U/mg] | A (PKA activity) (PKA-IIα; concentration 2.50E+02 μM) [U/mg] | rel. P-VASP (PKA) | activation of PKA in cells (PKA) | activation of Epac1 in cells (Epac1) | rel. RapGTP (Epac1) | further results
1 | COC1C2OP(=O)(O)OCC2OC1n1c(Sc2ccc(Cl)cc2)nc2c(N)ncnc21 [D-007, 8-pCPT-2′-O-Me-cAMP, reference compound] | 3500 | 0.8 | > 70000 | 7.998 | 1.14E+01 | 4.917 | 4.453 | 5.045 | 4.937 | 3.782 | 1.57E+01 | 0.1351 | only minor effects | strongly activated | 1.65 | A (PKA activity) (PKA-IIα; concentration 1.00E+03 μM): 1.97E+01 U/mg; A (PKA activity) (PKA-IIα; concentration 5.00E+01 μM): 1.39E+01 U/mg; A (PKA activity) (PKA-IIα; concentration 5.00E+02 μM): 1.77E+01 U/mg; A (PKA activity) (PKA-IIα; concentration […]): 9.518 U/mg
2 | Nc1ncnc2c1nc(Sc1ccc(Cl)cc1)n2[C@@H]1O[C@@H]2COP(=O)(O)O[C@H]2[C@H]1O [L-026, 8-pCPT-cAMP] | 80 | 0.5 | – | – | – | – | – | – | – | – | – | 0.9052 | – | – | 1.1255 | –
3 | Nc1ncnc2c1nc(SCc1ccccc1)n2[C@@H]1O[C@@H]2CO[P@](O)(=S)O[C@H]2[C@H]1O [S-220, Sp-8-BnT-cAMPS] | 100 | 7.7 | 270 | 1.74E+01 | 2.30E+01 | 1.09E+01 | 5.815 | 5.193 | 4.739 | 3.782 | 2.28E+01 | 0.1961 | very low | only minor effects | 0.6097 | kobs (Epac2^Δ280; 0.04 μM compound): 0.000468 s⁻¹; kobs (Epac2^Δ280; 0.05 μM compound): 0.000508 s⁻¹; kobs (Epac2^Δ280; 0.06 μM compound): 0.000631 s⁻¹; kobs (Epac2^Δ280; 0.07 μM compound): 0.000864 s⁻¹; kobs (Epac2^Δ280; 0.08 μM compound): 0.000721 s⁻¹; kobs (Epac2^Δ280; 0.1 μM compound): 0.000827 s⁻¹; kobs (Epac2^Δ280; 0.2 μM compound): 0.00131 s⁻¹; kobs (Epac2^Δ280; 0.3 μM compound): 0.00149 s⁻¹; kobs (Epac2^Δ280; 0.4 μM compound): 0.00167 s⁻¹; kobs (Epac2^Δ280; 0.5 μM compound): 0.00155 s⁻¹; kobs (Epac2^Δ280; 0.6 μM compound): 0.00184 s⁻¹; kobs (Epac2^Δ280; 0.7 μM compound): 0.00188 s⁻¹; Kact compared to cAMP (times higher / affinity reduced) (PKA-IIα; PKA-IIα): three to eight times higher; A (PKA activity) (PKA-IIα; concentration 2.50E-01 μM): 1.40E+01 U/mg; A (PKA activity) (PKA-IIα; concentration 2.50E-02 μM): 8.017 U/mg
